# Measurements taken from PubChem BioAssay AID390 (SGCOxCompounds, 2006).
# Biological target: Serine/threonine-protein kinase PAK 5 (Homo sapiens) (UniProt Q9P286)
# Test: ligand-induced stabilization of human PAK5 kinase – biophysical, DSF, SYPRO orange, recombinant protein (AID 390)
# Conditions: recombinant PAK5, DSF thermal shift, at 10 µM, hits give high values
# Sequence of Serine/threonine-protein kinase PAK 5 (Homo sapiens) (Q9P286 whole entry, looked up): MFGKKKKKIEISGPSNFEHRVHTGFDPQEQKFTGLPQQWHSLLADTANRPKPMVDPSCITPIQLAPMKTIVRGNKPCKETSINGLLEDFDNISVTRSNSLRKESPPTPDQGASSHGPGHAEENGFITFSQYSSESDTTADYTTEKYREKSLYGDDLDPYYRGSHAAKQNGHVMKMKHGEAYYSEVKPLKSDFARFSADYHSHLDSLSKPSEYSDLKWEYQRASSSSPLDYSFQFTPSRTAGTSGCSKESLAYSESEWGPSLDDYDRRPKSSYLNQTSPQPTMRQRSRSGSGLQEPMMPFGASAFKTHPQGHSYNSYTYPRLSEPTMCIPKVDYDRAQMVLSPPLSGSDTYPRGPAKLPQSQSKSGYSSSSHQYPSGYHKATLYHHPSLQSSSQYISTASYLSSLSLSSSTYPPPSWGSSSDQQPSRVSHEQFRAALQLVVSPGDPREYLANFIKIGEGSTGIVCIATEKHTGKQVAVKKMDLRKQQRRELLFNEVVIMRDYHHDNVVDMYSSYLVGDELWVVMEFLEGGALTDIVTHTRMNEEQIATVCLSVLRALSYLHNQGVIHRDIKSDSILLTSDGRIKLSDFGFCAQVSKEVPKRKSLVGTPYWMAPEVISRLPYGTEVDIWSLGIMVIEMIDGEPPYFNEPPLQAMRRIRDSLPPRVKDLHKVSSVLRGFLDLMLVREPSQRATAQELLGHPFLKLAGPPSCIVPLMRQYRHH
row,SMILES,Tm shift [Celsius]
1,O=C1Cc2c([nH]c3ccc(Br)cc23)-c2ccccc2N1,3.5
2,O=Nc1c(-c2c(O)[nH]c3cc(Br)ccc23)[nH]c2ccccc12,4.6
3,OCC(O)CCO/N=C1/C(c2c(O)[nH]c3ccccc23)=Nc2ccccc21 (stereo not given),3.37
4,Cn1cc(/C=C2\C(=O)Nc3ccc(S(N)(=O)=O)cc32)c2ccccc21,4.3
5,O=Nc1c(-c2c(O)[nH]c3ccccc23)[nH]c2ccccc12,4.2
6,NC(=O)c1ccc(-c2nc(-c3ccc4c(c3)OCCO4)c(-c3ccccn3)[nH]2)cc1,4.1
7,NS(=O)(=O)c1ccc(Nc2nc(OCC3CCCCC3)c3[nH]cnc3n2)cc1,3.3
8,CCn1cnc2c(Nc3cccc(Cl)c3)nc(N[C@@H]3CCCC[C@@H]3N)nc21,6.75
9,CCN(CC)CCNC(=O)c1c(C)[nH]c(/C=C2\C(=O)Nc3ccc(Cl)cc32)c1C,4.47
10,O=C1Cc2c([nH]c3ccc(N(O)O)cc23)-c2ccccc2N1,3.9
11,CC(C)c1nn(-c2c(Cl)cccc2Cl)c2nc(Cc3ccc(OCCO)cc3)[nH]c(=O)c12,3.1
12,Nc1nc(Nc2ccc(S(N)(=O)=O)cc2)nn1C(=S)Nc1c(F)cccc1F,5.57
13,CC(C)C(CO)Nc1nc(Nc2cccc(Cl)c2)c2ncn(C(C)C)c2n1 (stereo not given),4.5
14,Cc1cc(Nc2nc(-c3ccccc3)nc3ccccc23)n[nH]1,4.73
15,NCCNc1ncc(C(N)=O)c(Nc2cccc(C(F)(F)F)c2)n1,5.9
16,CC(=O)n1c(C2=c3ccccc3=NC2=O)c(O)[nH]c1=S,3.1
17,CC(O)(O)C1(O)C[C@@H]2O[C@@]1(C)n1c3ccccc3c3c4c(c5c6ccccc6n2c5c31)C(=O)NC4 (stereo not given in full),5.05
18,O=C1NC(=O)c2c1c1c3ccccc3n3c1c1c2c2ccccc2n1[C@@H]1CCC3O1,3.69
19,O=C1NCc2c1c1c3ccccc3[nH]c1c1[nH]c3ccccc3c21,4.4
20,N#CCCc1ccc2c(c1)-c1[nH]c3ccc(-n4oo4)cc3c1CC(=O)N2,4.05
